Patent US20240034736A1, “HSD17B13 INHIBITORS AND USES THEREOF” (FL2022-001, Inc., priority 2020, published 2024)

Molecular target: Recombinant human HSD17B13 enzyme (Homo sapiens (Human), UniProt Q7Z5P4)
Assay: HSD17b13 NAD(P)H-Glo Biochemical Assay
Conditions: for IC50: 50 uM estradiol, 1 mM NAD+, read-out: HSD17β13 IC50; for inhibition at 10 µM: read-out: HSD17β13 inhibition at 10 uM; for inhibition at 30 µM: read-out: HSD17β13 inhibition at 30 uM; for inhibition at 100 µM: read-out: HSD17β13 inhibition at 100 uM
Procedure, shortened: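 Recombinant human HSD17B13 was pre-incubated with inhibitor for 20 min at RT in 20 mM Tris pH 7.4 with 0.002% Tween-20 and 0.02% BSA. Reaction then ran with 50 uM estradiol and 1 mM NAD+ (final) for 3 h at 37° C. NADH formed was detected by NAD(P)H-Glo luminescence after 1 h at RT.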

Sequence of Recombinant human HSD17B13 enzyme (Q7Z5P4 20-300): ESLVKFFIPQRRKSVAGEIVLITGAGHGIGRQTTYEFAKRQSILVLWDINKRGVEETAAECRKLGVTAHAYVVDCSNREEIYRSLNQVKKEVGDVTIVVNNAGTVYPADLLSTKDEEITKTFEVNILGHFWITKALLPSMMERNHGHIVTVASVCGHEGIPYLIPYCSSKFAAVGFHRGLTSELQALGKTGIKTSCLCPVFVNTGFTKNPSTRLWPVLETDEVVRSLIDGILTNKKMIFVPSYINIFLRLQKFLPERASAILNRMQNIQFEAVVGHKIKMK

SMILES	IC50 [nM]	also measured
CNC(=O)c1nn(-c2cc(C(F)(F)F)c(F)c(O)c2F)c2ccc(N(C)C3CCOCC3)cc12 [Compound 19.112, 1-(2,4-Difluoro-3-hydroxy-5-(trifluoromethyl)phenyl)-N-methyl-5-(methyl(tetrahydro-2H-pyran-4-yl)amino)-1H-indazole-3-carboxamide]	1000 to 30000	–
CN(C)C(=O)c1nn(-c2cc(C(F)(F)F)c(F)c(O)c2F)c2ccc(N(C)C3CCOCC3)cc12 [Compound 19.113, 1-(2,4-Difluoro-3-hydroxy-5-(trifluoromethyl)phenyl)-N,N-dimethyl-5-(methyl(tetrahydro-2H-pyran-4-yl)amino)-1H-indazole-3-carboxamide]	1000 to 30000	–
Cc1nn(-c2cc(C(F)(F)F)c(F)c(O)c2F)c2cc(Cl)c(N3CCOCC34CC4)nc12 [Compound 19.114, 3-(6-Chloro-3-methyl-5-(7-oxa-4-azaspiro[2.5]octan-4-yl)-1H-pyrazolo[4,3-b]pyridin-1-yl)-2,6-difluoro-5-(trifluoromethyl)phenol]	< 100	–
Cc1nn(-c2cc(C(F)(F)F)c(F)c(O)c2F)c2cc(Cl)c(N(C)C3CCOCC3)nc12 [Compound 19.115, 3-(6-Chloro-3-methyl-5-(methyl(tetrahydro-2H-pyran-4-yl)amino)-1H-pyrazolo[4,3-b]pyridin-1-yl)-2,6-difluoro-5-(trifluoromethyl)phenol]	< 100	–
Cc1nn(-c2cc(C(F)(F)F)c(Cl)c(O)c2F)c2cnc(N3CCOCC34CC4)cc12 [Compound 19.116, 2-Chloro-6-fluoro-5-(3-methyl-5-(7-oxa-4-azaspiro[2.5]octan-4-yl)-1H-pyrazolo[3,4-c]pyridin-1-yl)-3-(trifluoromethyl)phenol]	< 100	–
CCCCCOc1ncc2c(n1)c(C)nn2-c1cc(C(F)(F)F)c(F)c(O)c1F [Compound 19.117, 2,6-Difluoro-3-(3-methyl-5-(pentyloxy)-1H-pyrazolo[4,3-d]pyrimidin-1-yl)-5-(trifluoromethyl)phenol]	100 to 1000	–
Cc1nn(-c2cc(C(F)(F)F)c(F)c(O)c2F)c2cnc(N3CCNCC3)nc12 [Compound 19.118, 2,6-Difluoro-3-(3-methyl-5-(piperazin-1-yl)-1H-pyrazolo[4,3-d]pyrimidin-1-yl)-5-(trifluoromethyl)phenol]	1000 to 30000	–
Cc1nn(-c2nc(C(F)(F)F)c(F)c(O)c2F)c2cnc(N3CCOCC34CC4)cc12 [Compound 19.119, 3,5-Difluoro-2-(3-methyl-5-(7-oxa-4-azaspiro[2.5]octan-4-yl)-1H-pyrazolo[3,4-c]pyridin-1-yl)-6-(trifluoromethyl)pyridin-4-ol]	1000 to 30000	–
Cc1nn(-c2cccc(O)c2C#N)c2cnc(N(C)C3CCOCC3)cc12 [Compound 19.120, 2-Hydroxy-6-(3-methyl-5-(methyl(tetrahydro-2H-pyran-4-yl)amino)-1H-pyrazolo[3,4-c]pyridin-1-yl)benzonitrile]	–	inhibition at 10 µM: 25%
Cc1nn(-c2cc(O)c(F)c(C(=O)O)c2)c2cnc(N3CCOCC34CC4)cc12 [Compound 19.121, 2-Fluoro-3-hydroxy-5-(3-methyl-5-(7-oxa-4-azaspiro[2.5]octan-4-yl)-1H-pyrazolo[3,4-c]pyridin-1-yl)benzoic Acid]	–	inhibition at 10 µM: < 20%
CNC(=O)c1cc(-n2nc(C)c3cc(N4CCOCC45CC5)ncc32)cc(O)c1F [Compound 19.122, 2-Fluoro-3-hydroxy-N-methyl-5-(3-methyl-5-(7-oxa-4-azaspiro[2.5]octan-4-yl)-1H-pyrazolo[3,4-c]pyridin-1-yl)benzamide]	–	inhibition at 10 µM: 20%
CS(=O)(=O)N1CCN(c2cc3cnn(-c4cc(O)cc(C#N)c4)c3cn2)CC1 [Compound 19.123, 3-Hydroxy-5-(5-(4-(methylsulfonyl)piperazin-1-yl)-1H-pyrazolo[3,4-c]pyridin-1-yl)benzonitrile]	–	inhibition at 30 µM: 30%
CS(=O)(=O)N1CCN(c2ccc3c(cnn3-c3ccc(F)c(O)c3)c2)CC1 [Compound 20, 2-Fluoro-5-(5-(4-(methylsulfonyl)piperazin-1-yl)-1H-indazol-1-yl)phenol]	1000 to 30000	–
Oc1cc(-n2ncc3cc(N4CCC(O)CC4)ccc32)ccc1F [Compound 20.01, 1-(1-(4-Fluoro-3-hydroxy-phenyl)-1H-indazol-5-yl)-piperidin-4-ol]	1000 to 30000	–
O=C(O)C1CCN(c2ccc3c(cnn3-c3ccc(F)c(O)c3)c2)CC1 [Compound 20.02, 1-(1-(4-Fluoro-3-hydroxy-phenyl)-1H-indazol-5-yl)-piperidine-4-carboxylic acid]	1000 to 30000	–
CNC(=O)C1CCN(c2ccc3c(cnn3-c3ccc(F)c(O)c3)c2)CC1 [Compound 20.03, 1-(1-(4-Fluoro-3-hydroxy-phenyl)-1H-indazol-5-yl)-N-methylpiperidine-4-carboxamide]	–	inhibition at 100 µM: 40%
CN(C)C(=O)C1CCN(c2ccc3c(cnn3-c3ccc(F)c(O)c3)c2)CC1 [Compound 20.04, 1-(1-(4-Fluoro-3-hydroxy-phenyl)-1H-indazol-5-yl)-N,N-dimethylpiperidine-4-carboxamide]	–	inhibition at 10 µM: < 20%
CC(=O)N1CCN(c2ccc3c(cnn3-c3ccc(F)c(O)c3)c2)CC1 [Compound 20.05, 1-(4-(1-(4-Fluoro-3-hydroxyphenyl)-1H-indazol-5-yl)piperazin-1-yl)ethan-1-one]	–	inhibition at 100 µM: < 20%
CS(=O)(=O)N1CCN(c2ccc3c(cnn3-c3cc(O)c(F)c(F)c3)c2)CC1 [Compound 21, 2,3-Difluoro-5-(5-(4-(methylsulfonyl)piperazin-1-yl)-1H-indazol-1-yl)phenol]	100 to 1000	–
Cc1cc(N2CCN(S(C)(=O)=O)CC2)cc2cnn(-c3cc(O)c(F)c(F)c3)c12 [Compound 21.17, 2,3-Difluoro-5-(7-methyl-5-(4-(methylsulfonyl)piperazin-1-yl)-1H-indazol-1-yl)phenol]	–	inhibition at 30 µM: 47%

More lines, main results first:

IC50 [nM]	SMILES	also measured
100 to 1000	Cc1nn(-c2cc(O)c(F)c(F)c2)c2ccc(N3CCN(S(C)(=O)=O)CC3)cc12 [Compound 21.01, 2,3-Difluoro-5-(3-methyl-5-(4-(methylsulfonyl)piperazin-1-yl)-1H-indazol-1-yl)phenol]	–
1000 to 30000	COC1CCN(c2ccc3c(cnn3-c3ccc(F)c(O)c3)c2)CC1 [Compound 21.02, 2-Fluoro-5-(5-(4-methoxy-piperidin-1-yl)-1H-indazol-1-yl)phenol]	–
1000 to 30000	CC(C)c1nn(-c2cc(O)c(F)c(F)c2)c2ccc(N3CCN(S(C)(=O)=O)CC3)cc12 [Compound 21.03, 2,3-Difluoro-5-(3-isopropyl-5-(4-(methylsulfonyl)piperazin-1-yl)-1H-indazol-1-yl)phenol]	–
100 to 1000	CC(C)S(=O)(=O)N1CCN(c2ccc3c(cnn3-c3cc(O)c(F)c(F)c3)c2)CC1 [Compound 21.04, 2,3-Difluoro-5-(5-(4-(isoprop-ylsulfonyl)piperazin-1-yl)-1H-indazol-1-yl)phenol]	–
1000 to 30000	CS(=O)(=O)NC1CCN(c2ccc3c(cnn3-c3cc(O)c(F)c(F)c3)c2)CC1 [Compound 21.05, N-(1-(1-(3,4-Difluoro-5-hydroxyphenyl)-1H-indazol-5-yl)piperidin-4-yl)methane-sulfonamide]	–
1000 to 30000	CS(=O)(=O)C1CCN(c2ccc3c(cnn3-c3cc(O)c(F)c(F)c3)c2)CC1 [Compound 21.06, 2,3-Difluoro-5-(5-(4-(methyl-sulfonyl)piperidin-1-yl)-1H-indazol-1-yl)phenol]	–
1000 to 30000	CS(=O)(=O)NC1CN(c2ccc3c(cnn3-c3cc(O)c(F)c(F)c3)c2)C1 [Compound 21.07, N-(1-(1-(3,4-Difluoro-5-hydroxyphenyl)-1H-indazol-5-yl)azetidine-3-yl)methane-sulfonamide]	–
1000 to 30000	O=S1(=O)CCN(c2ccc3c(cnn3-c3cc(O)c(F)c(F)c3)c2)CC1 [Compound 21.08, 4-(1-(3,4-Difluoro-5-hydroxy-phenyl)-1H-indazol-5-yl)-thiomorpholine 1,1-dioxide]	–
100 to 1000	O=S(=O)(c1ccccc1)N1CCN(c2ccc3c(cnn3-c3cc(O)c(F)c(F)c3)c2)CC1 [Compound 21.09, 2,3-Difluoro-5-(5-(4-(phenyl-sulfonyl)piperazin-1-yl)-1H-indazol-1-yl)phenol]	–
100 to 1000	O=S(=O)(Cc1ccccc1)N1CCN(c2ccc3c(cnn3-c3cc(O)c(F)c(F)c3)c2)CC1 [Compound 21.10, 5-(5-(4-(Benzylsulfonyl)-piperazin-1-yl)-1H-indazol-1-yl)-2,3-difluorophenol]	–
1000 to 30000	Cc1cc2c(cnn2-c2cc(O)c(F)c(F)c2)cc1N1CCN(S(C)(=O)=O)CC1 [Compound 21.11, 2,3-Difluoro-5-(6-methyl-5-(4-(methylsulfonyl)piperazin-1-yl)-1H-indazol-1-yl)phenol]	–
1000 to 30000	CS(=O)(=O)N1CCN(c2ccc3c(c2)c(C2CC2)nn3-c2cc(O)c(F)c(F)c2)CC1 [Compound 21.12, 5-(3-Cyclopropyl-5-(4-(meth-ylsulfonyl)piperazin-1-yl)-1H-indazol-1-yl)-2,3-difluoro-phenol]	–
100 to 1000	CS(=O)(=O)N1CCN(c2cc3cnn(-c4cc(O)c(F)c(F)c4)c3cc2Cl)CC1 [Compound 21.13, 5-(6-Chloro-5-(4-(methyl-sulfonyl)piperazin-1-yl)-1H-indazol-1-yl)-2,3-difluoro-phenol]	–
1000 to 30000	Cc1c(N2CCN(S(C)(=O)=O)CC2)ccc2c1cnn2-c1cc(O)c(F)c(F)c1 [Compound 21.14, 2,3-Difluoro-5-(4-methyl-5-(4-(methylsulfonyl)piperazin-1-yl)-1H-indazol-1-yl)phenol]	–
1000 to 30000	CS(=O)(=O)N1CCN(c2ccc3c(cnn3-c3cc(O)c(F)c(F)c3)c2Cl)CC1 [Compound 21.15, 5-(4-Chloro-5-(4-(methyl-sulfonyl)piperazin-1-yl)-1H-indazol-1-yl)-2,3-difluoro-phenol]	–
1000 to 30000	CS(=O)(=O)N1CCN(c2cc(Cl)c3c(cnn3-c3cc(O)c(F)c(F)c3)c2)CC1 [Compound 21.16, 5-(7-Chloro-5-(4-(methyl-sulfonyl)piperazin-1-yl)-1H-indazol-1-yl)-2,3-difluoro-phenol]	–
